Earlier results as cited in US9855261B2, “Polymeric compound having camptothecin compound and anti-cancer effect enhancer bound thereto, and use of same” (priority 2012, dated 2018).

Settings: of its dose

CC[C@@]1(O)C(=O)OCc2c1cc1n(c2=O)Cc2cc3c(CN(C)C)c(O)ccc3nc2-1 [Topotecan]
share of dose excreted renally: 20-40%
